The record followed here is article PMC3148428 (2011).

Molecules are shown by their SMILES.

The assay has as its target T1, ABCG2 (Rattus norvegicus, UniProt Q80W57).
T1 sequence (Q80W57 1-657): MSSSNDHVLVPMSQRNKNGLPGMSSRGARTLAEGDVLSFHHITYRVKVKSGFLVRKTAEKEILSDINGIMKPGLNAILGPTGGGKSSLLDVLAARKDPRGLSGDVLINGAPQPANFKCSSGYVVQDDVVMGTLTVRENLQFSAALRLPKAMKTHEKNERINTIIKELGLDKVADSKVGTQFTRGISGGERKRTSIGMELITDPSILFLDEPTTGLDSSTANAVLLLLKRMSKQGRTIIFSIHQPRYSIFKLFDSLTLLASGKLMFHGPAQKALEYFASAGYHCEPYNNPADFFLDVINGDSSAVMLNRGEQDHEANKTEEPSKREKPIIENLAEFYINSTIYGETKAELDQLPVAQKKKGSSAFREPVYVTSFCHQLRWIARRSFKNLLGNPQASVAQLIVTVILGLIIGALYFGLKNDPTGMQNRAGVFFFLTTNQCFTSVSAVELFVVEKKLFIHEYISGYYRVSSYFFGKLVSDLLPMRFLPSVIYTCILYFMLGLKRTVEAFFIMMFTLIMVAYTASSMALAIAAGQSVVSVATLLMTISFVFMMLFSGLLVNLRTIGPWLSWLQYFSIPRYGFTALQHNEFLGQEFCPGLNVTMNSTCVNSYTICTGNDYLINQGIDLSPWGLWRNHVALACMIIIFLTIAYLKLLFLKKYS

The compound `Cc1cn(-c2cc(NC(=O)c3ccc(C)c(Nc4nccc(-c5cccnc5)n4)c3)cc(C(F)(F)F)c2)cn1` [Tasigna] yielded an IC50 of 93.2 nM.
